Results as given in patent US20140249105A1, “NOVEL CERAMIDE ANALOGUES, PROCESSES FOR PREPARING SAME AND USES THEREOF” (Diverchim, priority 2011, published 2014).

Legend:
B16 melanocytes [1] = experiment: Screening of anti-melanogenesis activity: melanin assay in B16 melanocytes stimulated with NDP-MSH; assay type: cell-based; conditions: 72 h
Experimental: This was carried out for compounds in solution in DMSO. The synthesis of melanin was measured in a model of B16 melanocytes stimulated with a stable derivative of α-MSH (natural hormone that stimulates melanogenesis: Melanocyte Stimulating Hormone): NDP-MSH ([Nle^4, DPhe7]-α-MSH).
(§1) Melanocytes were seeded on a 96-well plate and cultured for 24 h (37° C., 5% CO2, DMEM 1 g/L glucose without phenol red supplemented with glucose 3 g/L, L-glutamine 2 mM, penicillin 50 U/mL, streptomycin 50 μg/mL, fetal calf serum (FCS) 10%). […] Each experimental condition was carried out with n=3, apart from the controls carried out with n=6. The cells were then incubated for 72 h. Wells without cells received in parallel the same quantities of medium, supplemented or not with NDP-MSH and with or without the test compounds or the reference in order to quantify the background noise associated with the presence of the compounds.
At the end of 72 hours of incubation, the total melanin (intra- and extracellular) was quantified by measuring the absorbance of each sample at 405 nm (direct reading of the culture plates) against a standard range of melanin (melanin concentrations tested from 0.78 to 100 μg/mL). The background noise, measured in the wells without cells, was subtracted from the values measured so that only the effect connected with the production of melanin is taken into account, without including any interference connected with the presence of the compounds. The results were expressed in percentage of melanin relative to the control as well as in percentage inhibition.

B16 melanocytes [2] = experiment: Viability of the cells, test of reduction of MTT; assay type: cell-based; conditions: 72 h
Experimental: as §1
At the end of the treatment, the cells were incubated in the presence of MTT (3-(4,5-dimethylthiazol-2-yl)-2,5-diphenyl tetrazolium bromide), the conversion of which to blue crystals of formazan is proportional to the activity of succinate dehydrogenase (mitochondrial enzyme). After disruption of the cells, the formazan was dissolved in DMSO medium and the optical density (OD), representative of the number of live cells and of their metabolic reactivity, was measured with a microplate reader at 540 nm (VERSAmax, Molecular Devices).

Row | SMILES | Normalized data inhibition (%) (B16 melanocytes [1]; 30 μM) | Normalized data inhibition (%) (B16 melanocytes [1]; 100 μM) | Viability (MTT) % stimulated control (B16 melanocytes [2]; 30 μM) [% stimulated control] | Viability (MTT) % stimulated control (B16 melanocytes [2]; 100 μM) [% stimulated control] | other results
1 | O=C(NC1CC1NC(=O)C(F)=CCCCCCCCCO)C(F)=CCCCCCCCCO (mixture of isomers) [c37] | 0 | 92 | 77 | 83 | 
2 | O=C(NC1CCCC1NC(=O)C(F)=CCCCCCCCO)C(F)=CCCCCCCCO (mixture of isomers) [c46] | 0 | 75 | 77 | 68 | 
3 | O=C(NC1CCCC1NC(=O)C(F)=CCCCCCCCOC1CCCCO1)C(F)=CCCCCCCCOC1CCCCO1 (mixture of isomers) [c66] | 119 | 118 | 96 | 93 | 
4 | O=C(NC1CCC(NC(=O)C(F)=CCCCCCCCOC2CCCCO2)C1)C(F)=CCCCCCCCOC1CCCCO1 (mixture of isomers) [c69] | 116 | 112 | 87 | 78 | 
5 | O=C(NC1CCCC1NC(=O)C(F)=CCCCCCCCCOC1CCCCO1)C(F)=CCCCCCCCCOC1CCCCO1 (mixture of isomers) [c71] | 93 | 109 | 116 | 104 | 
6 | O=C(NC1CCC(NC(=O)C(F)=CCCCCCCCCOC2CCCCO2)C1)C(F)=CCCCCCCCCOC1CCCCO1 (mixture of isomers) [c74] | 110 | 111 | 78 | 81 | 
7 | O=C(NC1CC1NC(=O)C(F)=CCCCCCOC1CCCCO1)C(F)=CCCCCCOC1CCCCO1 (mixture of isomers) [c108] | 73 | 105 | 75 | 80 | 
8 | O=C(NC1CC1NC(=O)C(F)=CCCCCCOC1CCCCO1)C(F)=CCCCCCOC1CCCCO1 (racemic) [c110] | 104 | 120 | 83 | 0 | 
9 | O=C(NC1CCC(NC(=O)C(F)=CCCCCCO)C1)C(F)=CCCCCCO (racemic) [c115] | 0 | 95 | 94 | 97 | 
10 | O=c1cc(CO)occ1O [Kojic acid, reference compound] |  |  |  |  | inhibition at 25 µg/mL (B16 melanocytes [1]; Melanocyte, 25 μg/mL, read-out: Normalized data inhibition (%)): 59%; inhibition at 100 µg/mL (B16 melanocytes [1]; Melanocyte, 100 μg/mL, read-out: Normalized data inhibition (%)): 83%; inhibition at 400 µg/mL (B16 melanocytes [1]; Melanocyte, 400 μg/mL, read-out: Normalized data inhibition (%)): 93%; Viability (MTT) % stimulated control (B16 melanocytes [2]; 25 μg/mL): 103 % stimulated control; Viability (MTT) % stimulated control (B16 melanocytes [2]; 100 μg/mL): 99 % stimulated control; Viability (MTT) % stimulated control (B16 melanocytes [2]; 400 μg/mL): 96 % stimulated control
11 | O=C(O)C(F)=CCCCCCCCCCCCCCCCO [Ref 2, 18-Hydroxy-octadec-2-en-2-fluoro-oic acid, reference compound] | 0 | 79 | 83 | 72 | 
12 | O=C(NC1CCC(NC(=O)C(F)=CCCCCCOC2CCCCO2)C1)C(F)=CCCCCCOC1CCCCO1 (centres unmarked) [c8] | 86 | 115 | 86 | 77 | 
13 | O=C(/C=C/CCCCCCCCO)N[C@H]1CCC[C@H]1NC(=O)/C=C/CCCCCCCCO [c15] | 2 | 73 | 76 | 74 | 
14 | O=C(/C=C/CCCCCCCCCCCOC1CCCCO1)N[C@@H]1CC[C@H](NC(=O)/C=C/CCCCCCCCCCCOC2CCCCO2)C1 (some centres unmarked) [c30] |  |  | 76 |  | inhibition at 10 µM (B16 melanocytes [1]; Melanocyte, 10 μM, read-out: Normalized data inhibition (%)): 42%; inhibition at 30 µM (B16 melanocytes [1]; Melanocyte, 30 μM, read-out: Normalized data inhibition (%)): 71%; Viability (MTT) % stimulated control (B16 melanocytes [2]; 10 μM): 77 % stimulated control
15 | O=C(N[C@H]1C[C@H]1NC(=O)C(F)=CCCCCCCCCCCCCCCCO)C(F)=CCCCCCCCCCCCCCCCO [c44] |  |  |  |  | Normalized data inhibition (%) (B16 melanocytes [1]; 1 μM): −11%; Normalized data inhibition (%) (B16 melanocytes [1]; 3 μM): 36%; Normalized data inhibition (%) (B16 melanocytes [1]; 10 μM): 69%; Viability (MTT) % stimulated control (B16 melanocytes [2]; 1 μM): 87 % stimulated control; Viability (MTT) % stimulated control (B16 melanocytes [2]; 3 μM): 88 % stimulated control; Viability (MTT) % stimulated control (B16 melanocytes [2]; 10 μM): 91 % stimulated control
16 | O=C(N[C@H]1CCC[C@H]1NC(=O)/C(F)=C\CCCCCCCCO)/C(F)=C\CCCCCCCCO [c49] | 83 | 118 | 83 | 0 | 
17 | O=C(N[C@@H]1CC[C@H](NC(=O)/C(F)=C/CCCCCCCCO)C1)/C(F)=C/CCCCCCCCO [c58] | 62 | 83 | 101 | 98 | 
18 | O=C(NC1CCC(NC(=O)C(F)=CCCCCCCCCCCCO)C1)C(F)=CCCCCCCCCCCCO (centres unmarked) [c60] | 83 | 97 | 105 | 101 | 
19 | O=C(N[C@H]1CCC[C@H]1NC(=O)/C(F)=C\CCCCCCCOC1CCCCO1)/C(F)=C\CCCCCCCOC1CCCCO1 (some centres unmarked) [c67] | 119 | 116 | 71 | 81 | 
20 | O=C(N[C@@H]1CC[C@H](NC(=O)/C(F)=C/CCCCCCCOC2CCCCO2)C1)/C(F)=C/CCCCCCCOC1CCCCO1 (some centres unmarked) [c68] | 95 | 108 | 64 | 50 | 
21 | O=C(N[C@@H]1CC[C@H](NC(=O)/C(F)=C\CCCCCCCOC2CCCCO2)C1)/C(F)=C\CCCCCCCOC1CCCCO1 (some centres unmarked) [c70] | 115 | 116 | 90 | 86 | 
22 | CCCCCC=CCC=CCCCCCCCC(=O)NC1CC1NC(=O)CCCCCCCC=CCC=CCCCCC (centres unmarked) [c122] | 8 | 109 |  |  | 
23 | CCCCCC=CCC=CCCCCCCCC(=O)NC1CCC(NC(=O)CCCCCCCC=CCC=CCCCCC)C1 (centres unmarked) [c135] | 0 | 90 |  |  | 
